For data set [1], the target named is T1, Integrin alpha-V/beta-3 (Homo sapiens, UniProt P05106+P06756). The experiment in a line: Inhibition of vitronectin binding to human integrin alphaVbeta3 measured after 4 hrs by ELISA. Type of data set: protein-complex assay.
Data set [2] concerns the target T1, Integrin alpha-V/beta-3. In words: Inhibition of vitronectin binding to integrin alphaVbeta3 in HDF pretreated for 20 mins followed by vitronectin addition measured after 40 mins by crystal violet staining based assay. Type of data set: protein-complex assay.
Data set [3] is described as follows: Stability in human serum at 1 mM incubated for 15 mins measured up to 180 mins by RP-HPLC method. Format: ADME, cell-free. Particulars: 0.25 h, 1000 µM.

T1 sequence (P05106 27-788 limits assumed): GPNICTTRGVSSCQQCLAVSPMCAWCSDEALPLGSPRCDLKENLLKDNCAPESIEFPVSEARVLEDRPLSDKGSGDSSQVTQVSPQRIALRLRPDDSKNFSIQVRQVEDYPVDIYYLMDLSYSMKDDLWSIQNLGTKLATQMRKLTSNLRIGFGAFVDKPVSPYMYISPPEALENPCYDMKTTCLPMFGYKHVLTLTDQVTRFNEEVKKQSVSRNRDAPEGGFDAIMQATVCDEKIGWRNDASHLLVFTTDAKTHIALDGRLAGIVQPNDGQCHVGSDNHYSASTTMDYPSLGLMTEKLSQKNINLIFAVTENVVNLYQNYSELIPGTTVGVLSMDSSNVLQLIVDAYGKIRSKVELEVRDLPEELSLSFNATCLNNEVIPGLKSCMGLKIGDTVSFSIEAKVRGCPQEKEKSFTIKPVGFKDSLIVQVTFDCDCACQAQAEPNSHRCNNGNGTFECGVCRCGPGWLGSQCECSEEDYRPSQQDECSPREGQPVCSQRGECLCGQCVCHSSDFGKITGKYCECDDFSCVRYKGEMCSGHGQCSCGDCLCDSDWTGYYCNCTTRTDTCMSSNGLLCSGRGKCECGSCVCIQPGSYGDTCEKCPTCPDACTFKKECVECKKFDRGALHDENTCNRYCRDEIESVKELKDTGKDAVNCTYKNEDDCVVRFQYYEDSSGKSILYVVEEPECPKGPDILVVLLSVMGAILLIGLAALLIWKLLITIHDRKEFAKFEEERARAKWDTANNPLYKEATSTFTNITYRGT
T1 sequence (P06756 31-889 limits assumed): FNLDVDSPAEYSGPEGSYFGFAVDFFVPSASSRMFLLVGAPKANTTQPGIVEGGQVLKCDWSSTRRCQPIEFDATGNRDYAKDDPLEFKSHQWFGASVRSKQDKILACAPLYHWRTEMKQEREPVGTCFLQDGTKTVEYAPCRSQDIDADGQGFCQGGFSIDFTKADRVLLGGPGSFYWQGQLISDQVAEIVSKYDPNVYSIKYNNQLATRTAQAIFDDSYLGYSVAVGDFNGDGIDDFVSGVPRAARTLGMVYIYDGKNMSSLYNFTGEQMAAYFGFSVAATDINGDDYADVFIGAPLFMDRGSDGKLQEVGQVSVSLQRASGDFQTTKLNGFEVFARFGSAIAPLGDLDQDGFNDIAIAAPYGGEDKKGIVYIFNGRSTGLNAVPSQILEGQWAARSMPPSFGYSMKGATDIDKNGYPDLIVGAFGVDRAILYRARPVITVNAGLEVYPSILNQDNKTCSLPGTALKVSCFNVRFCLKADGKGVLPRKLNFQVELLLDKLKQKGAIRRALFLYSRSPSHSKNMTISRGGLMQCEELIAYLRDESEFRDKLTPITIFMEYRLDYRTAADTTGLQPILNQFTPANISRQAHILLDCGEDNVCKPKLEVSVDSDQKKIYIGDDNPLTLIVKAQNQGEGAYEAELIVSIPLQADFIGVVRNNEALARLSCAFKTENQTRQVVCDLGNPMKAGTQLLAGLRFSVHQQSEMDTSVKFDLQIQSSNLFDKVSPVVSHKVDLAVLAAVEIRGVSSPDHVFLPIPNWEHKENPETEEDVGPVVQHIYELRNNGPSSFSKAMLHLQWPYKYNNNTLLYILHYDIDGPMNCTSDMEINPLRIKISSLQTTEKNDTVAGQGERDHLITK
T1 sequence (P06756 891-1048 limits assumed): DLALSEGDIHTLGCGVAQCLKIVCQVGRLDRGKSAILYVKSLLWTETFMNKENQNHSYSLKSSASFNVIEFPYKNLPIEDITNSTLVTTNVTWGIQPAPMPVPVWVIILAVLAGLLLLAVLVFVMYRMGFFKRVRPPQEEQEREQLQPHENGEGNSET

Regarding `C/C1=C\[C@@H](Cc2ccccc2)NC(=O)[C@H](CC(=O)O)NC(=O)CNC(=O)[C@H](CCCNC(=N)N)NC(=O)[C@@H]1C(C)C`, the concentration for half-maximal inhibition (IC50) at Integrin alpha-V/beta-3 [1] was 2.4 nM.

`CC(C)[C@@H]1/C=C/[C@@H](Cc2ccccc2)NC(=O)[C@H](CC(=O)O)NC(=O)CNC(=O)[C@H](CCCNC(=N)N)NC1=O` came in with an IC50 on Integrin alpha-V/beta-3 [1] of 3.6 nM.

In the case of `CC(C)[C@@H]1/C=C(\Cl)[C@@H](Cc2ccccc2)NC(=O)[C@H](CC(=O)O)NC(=O)CNC(=O)[C@H](CCCNC(=N)N)NC1=O`, the IC50 on Integrin alpha-V/beta-3 [2] worked out at 0.497 nM. Besides, the Stability result in data set [3] was “Stable”.

The values above are taken from ChEMBL document CHEMBL4138265, “Synthesis of a Chloroalkene Dipeptide Isostere-Containing Peptidomimetic and Its Biological Application” (ACS Med Chem Lett, 2018).
